Measured values taken from paper PMC7698842, “Lanostane Triterpenoid Metabolites from a Penares sp. Marine Sponge Protect Neuro-2a Cells against Paraquat Neurotoxicity” (Molecules, 2020).

Assays:
[1] = DPPH radical scavenging assay (cell-free); conditions: 30 min, MeOH
Method: The 2,2-diphenyl-1-picryl-hydrazyl-hydrate (DPPH) radical scavenging activity was tested as described previously. The compounds were dissolved in MeOH, and the solutions (120 µL) were dispensed into wells of a 96-well microplate. The DPPH (Sigma-Aldrich, Steinheim, Germany) was dissolved in MeOH at a concentration of 7.5 × 10^−3 M and the solution (30 µL) was added to each well. The concentrations of tested compounds in the mixtures were 10 and 100 µM. Ascorbic acid was used as a positive control. The mixtures were shaken and left for 30 min. The absorbance of the resulting solutions was measured at λ = 520 nm with a MultiscanFC plate reader (Thermo Scientific, Waltham, MA, USA). The concentration scavenging 50% of the DPPH radical (EC50) was calculated for each compound.

[2] = Cytotoxicity toward Neuro-2a cells (MTT assay); type: cell-based, mouse; conditions: mouse, Neuro-2a neuroblastoma cells, 24 h; for activity at 24 h, 10 µM: Neuro-2a cell viability, read-out: Cytotoxicity (MTT Assay) % of Control at 10 μM; for IC50 at 24 h: Neuro-2a cells
Method: (§1) The cells of mouse neuroblastoma cell line Neuro-2a (ATCC® CCL-131™; American Type Culture Collection, Manassas, VA, USA) were cultured in Dulbecco’s modified Eagle’s medium (DMEM) containing 10% fetal bovine serum (Biolot, St. Petersburg, Russia) and 1% penicillin/streptomycin (Biolot, St. Petersburg, Russia) at 37 °C in a humidified atmosphere with 5% (v/v) CO2. Initially, cells were incubated in cultural flasks until sub-confluent (~80%). For testing, Neuro-2a cells were seeded in 96- or 6-well plates and experiments were started after 24 h.
(§2) The cells (1 × 10^4 cells/well of a 96-well plate) were incubated with different concentrations of studied compounds during 24 h. After that, cell viability was determined by the MTT (3-(4,5-dimethylthiazol-2-yl)-2,5-diphenyltetrazolium bromide) method according to the manufacturer’s instructions (Sigma-Aldrich, St. Louis, MO, USA). Absorbance of the converted formazan was measured using a Multiskan FC microplate photometer (Thermo Scientific, Waltham, MA, USA) at λ = 570 nm. The results were presented as percent of control data, and concentration of cell viability inhibition on 50% (IC50) was calculated.

[3] = test system: PQ-treated Neuro-2a cells; assay: Neurite outgrowth estimation in PQ-treated Neuro-2a cells; type: cell-based, mouse
Method: Neurite outgrowth was studied as described by Li et al.. Neuro-2a cells were seeded in 6-well plates (1.6 × 10^5 cells/well) in DMEM medium containing 10% fetal bovine serum (Biolot, St. Peterburg, Russia) and 1% penicillin/streptomycin (Invitrogen, Carlsbad, CA, USA). The next day, this growth media was changed with serum-free DMEM media containing 1% penicillin/streptomycin, and cells were treated with studied compounds at a concentration of 10 µM for 1 h. After that, PQ (500 µM) was added and cells were incubated during 24 h. Cells incubated without PQ and compounds and with PQ alone were used as positive and negative controls, respectively.
For each well, approximately 10 images were acquired randomly by scanning the wells from left to right and top to bottom using the AxioImager A1 microscope (CarlZeiss, Oberkochen, Germany). A total of ten random fields (near 350 cells in each) for each experimental group were scored for neurite outgrowth. The number of neurite-bearing cells and lengths of the individual neurites for each cell were measured using the AxioVision 4.7.1 software (CarlZeiss, Oberkochen, Germany). Length was defined as the straight-line distance from the tip of the neurite to the junction between the cell body and neurite base. In the case of branched neurites, the length of the longest branch was measured from the tip of the neurite to the cell body. In each experimental group, the average length of neurites was calculated, as well as the average number of neurites per one cell.

[4] = test system: mitochondrial membrane potential in PQ-treated Neuro-2a cells; assay: Mitochondrial membrane potential detection (TMRM) in PQ-treated Neuro-2a cells; type: cell-based, mouse
Method: The cells (1 × 10^4 cells/well of a 96-well plate) were incubated with compound solutions (1 and 10 µM) during 1 h. Then, PQ was added to cell suspension to a resulting concentration of 500 µM for incubation during 1 h. Cells incubated without PQ and compounds and with PQ alone were used as positive and negative controls, respectively. The tetramethylrhodamine methyl (TMRM) (Sigma-Aldrich, St. Louis, MO, USA) solution at 500 nM was added in each well and cells were incubated for 30 min at 37 °C. The intensity of fluorescence was measured with a PHERAstar FS plate reader (BMG Labtech, Ortenberg, Germany) at λex = 540 nm and λem = 590 nm. The data were processed by MARS Data Analysis v. 3.01R2 (BMG Labtech, Ortenberg, Germany). The results were presented as percent of positive control data.

[5] = test system: PQ-treated Neuro-2a cells; assay: Propidium iodide straining of PQ-treated Neuro-2a cells (membrane permeability); type: cell-based, mouse; conditions: 24 h; for decrease of fluorescence of PI-straining cells: compound 10 μM pre-incubation, PQ-treated cells
Method: The cells (1 × 10^4 cells/well) were seeded in black 96-well plates before testing. After incubation of the cells with compounds and PQ during 24 h, PI solution (10 μg/mL) was added to each well and the plate was incubated in the dark at 37 °C for 10 min. Cells were washed with phosphate buffer saline (PBS) (BioloT, St.Peterburg, Russia) and fluorescence was measured with a Fluoroskan Ascent plate reader (Thermo Labsystems, Helsinki, Finland) at […]. All manipulations with fluorescent probes were carried out in a darkened room. The results were presented as percent of positive control data.

[6] = test system: Hsp70 level in Neuro-2a cells; assay: Hsp70 level analysis by Western blot in Neuro-2a cells; type: cell-based, mouse; conditions: for increase of Hsp70 level in PQ-treated cells: compound 10 µM 1 h, then PQ 500 µM 24 h
Method: The Hsp70 expression was detected by Western blot analysis. Cell suspensions (1.6 × 10^5 cells/well of a 6-well plate) were seeded and treated with studied compounds at a concentration of 10 µM for 1 h. After that, PQ (500 µM) was added and cells were incubated during 24 h. Cells incubated without PQ and compounds and with PQ alone were used as positive and negative controls, respectively. Cells were washed by cold PBS (BioloT, Russia) twice and lysed by radioimmunoprecipitation assay (RIPA) buffer (BioloT, St. Peterburg, Russia). The amount of proteins was measured by the Bradford method and equal samples (25 µg) were prepared using sample buffer. Proteins were separated with sodium dodecyl sulphate (SDS) electrophoresis in 10% polyacrylamide gel. The electrophoretically separated proteins were transferred onto the polyvinylidene difluoride (PVDF) membrane Whatman (Sigma-Aldrich, St. Louis, MO, USA) using a semi-dry transfer apparatus (Helicon, Moscow, Russia). […] The peroxidase reaction was visualized by an enhanced chemiluminescence (ECL) kit according to the instructions of the manufacturer (Sigma-Aldrich, St. Louis, MO, USA) using the VersaDoc Imaging System (Bio-Rad, Hercules, CA, USA).

[7] = test system: ROS level in PQ-treated Neuro-2a cells; assay: ROS level analysis in PQ-treated Neuro-2a cells (H2DCFDA); type: cell-based, mouse; conditions: for concentrations at which ROS content in PQ-treated cells was reduced: tested at 1 and 10 μM
Method: The cells (1 × 10^4 cells/well of a 96-well plate) were incubated with compound solutions (1 and 10 µM) during 1 h. Then, PQ was added to cell suspension to a resulting concentration of 500 µM for incubation during 1 h. Cells incubated without PQ and compounds and with PQ alone were used as positive and negative controls, respectively. The 20 µL of 2,7-dichlorodihydrofluorescein diacetate solution (H2DCFDA, Molecular Probes, Eugene, OR, USA) was added to each well (10 µM, final concentration) and the plate was incubated for an additional 10 min at 37 °C. The intensity of dichlorofluorescin fluorescence was measured with a PHERAstar FS plate reader (BMG Labtech, Ortenberg, Germany) at λex = 485 nm and λem = 518 nm. The data were processed by MARS Data Analysis v. 3.01R2 (BMG Labtech, Ortenberg, Germany). The results were presented as percent of positive control data.

[8] = test system: PQ-treated Neuro-2a cells; assay: PQ-treated Neuro-2a cell viability (MTT assay); type: cell-based, mouse; conditions: 24 h; for effect on PQ-treated cell viability (MTT assay): compound 1 and 10 µM, PQ 500 µM
Method: as §2
(§3) The cells (1 × 10^4 cells/well of a 96-well plate) were treated with studied compounds at concentrations of 1 and 10 µM for 1 h and then 500 µM of PQ (Sigma-Aldrich, St. Louis, MO, USA) was added to the neuroblastoma cells. Cells incubated without PQ and compounds and with PQ alone were used as positive and negative controls, respectively. The viability of cells was measured after 24 h using MTT and FDA methods. The results were presented as percent of positive control data.

[9] = test system: Neuro-2a cells; assay: Cytotoxicity toward Neuro-2a cells (MTT assay); type: cell-based, mouse; conditions: Neuro-2a cells, 100 μM, MTT assay
Method: as §1, §2

[10] = test system: PQ-treated Neuro-2a cells; assay: PQ-treated Neuro-2a cell viability (FDA assay); type: cell-based, mouse; conditions: 24 h
Method: A stock solution of the fluorescein diacetate (FDA) (Sigma-Aldrich, St. Louis, MO, USA) in DMSO (1 mg/mL) was prepared. The cells (1 × 10^4 cells/well) were seeded in black 96-well plates before testing. After incubation of the cells with compounds and PQ during 24 h, FDA solution (50 μg/mL) was added to each well and the plate was incubated in the dark at 37 °C for 15 min. Cells were washed with phosphate buffer saline (PBS) (BioloT, S.-Peterburg, Russia) and fluorescence was measured with a Fluoroskan Ascent plate reader (Thermo Labsystems, Helsinki, Finland) at λex = 485 nm and λem = 518 nm. All manipulations with fluorescent probes were carried out in a darkened room. Cell viability was expressed as the percent of control.
as §3

[11] = compound 10 µM 1 h, then PQ 500 µM 24 h
[12] = PQ-treated cells (PQ alone 500 µM)

Row | Molecule | EC50 [1] [µM] | activity at 24 h, 10 µM [2] [%] | IC50 at 24 h [2] [µM] | increase in the average number of neurites per cell [3, 11] [%] | decrease of fluorescence of PI-straining cells [5] [%] | increase of Hsp70 level in PQ-treated cells [6] [%] | effect on PQ-treated cell viability (MTT assay) [8] | concentrations at which ROS content in PQ-treated cells was reduced ([7]; PQ 500 µM 1 h) | also measured
1 | O=C1O[C@H]([C@@H](O)CO)C(O)=C1O [Ascorbic acid, reference compound] | 20.5 ± 1.5 | – | – | – | – | – | – | – | –
2 | CC(=O)O[C@H]1CC[C@@]2(C)[C@@H](C[C@@H]3O[C@]34[C@]23CC[C@]2(C)[C@@H]([C@H](C)CCC=C(C)C)CC[C@@]42C(=O)O3)C1(C)C [Compound 1, 3β-acetoxy-7β,8β-epoxy-5α-lanost-24-en-30,9α-olide] | > 100 | 92.1 ± 7.1 | 85.7 ± 2.4 | 16 | 16 | 62 | – | – | effect on the number of neurite-bearing PQ-treated cells ([3]; compound 10 µM, PQ 500 µM): did not show a statistical effect; increase of intensity of TMRM fluorescence (PQ-induced mitochondrial dysfunction diminished) ([4]; compound 10 μM, PQ 500 µM 1 h): 37%; effect on ROS level in PQ-treated cells ([7]; compound 1 and 10 µM, 1 h pre-treatment, PQ 500 µM 1 h): did not affect ROS level
3 | CC(C)=CCC[C@@H](C)[C@H]1CC[C@]23C(=O)O[C@]4(CC[C@]12C)[C@]31O[C@H]1C[C@H]1C(C)(C)[C@@H](O)CC[C@@]14C [Compound 2, 3β-hydroxy-7β,8β-epoxy-5α-lanost-24-en-30,9α-olide] | > 100 | 96.9 ± 1.1 | > 100 | 12 | 12 | 43 | did not show any effect | reduced ROS content only at a concentration of 10 μM | –
4 | CC(C)=CCC[C@@H](C)[C@H]1CC[C@@]2(C(=O)O)C3=C(CC[C@]12C)[C@@]1(C)CCC(=O)[C@@H](C)[C@@H]1CC3 [Compound 3, 29-nor-penasterone] | > 100 | 91.1 ± 4.1 | > 100 | 17 | – | 26 | did not show any effect | reduced ROS content only at a concentration of 10 μM | death of cells [9]: 37.4%; increase of neurites-bearing cell amount compared to PQ-treated control [3, 11]: 113%; effect on PQ-treated cell viability (FDA assay) ([10]; compound 1 and 10 µM, PQ 500 µM): did not show any effect
5 | N,N-dimethyl-4,4-bipyridinium dichloride [PQ, reference compound] | – | – | – | – | – | – | – | – | average length of neurites, less than control value by ([3]; PQ alone 500 µM, 24 h): 29%; number of neurites per cell, less than control value by ([3]; PQ alone 500 µM, 24 h): 14%; cells with neurites ([3]; PQ alone 500 µM, 24 h, control 30%): 10%; proportion of neurites with a length of 0–4.99 µm in the total number [3, 12]: 11.1%; proportion of neurites with a length of 10.00–14.99 µm in the total number [3, 12]: 16.6%; decrease of TMRM fluorescence ([4]; PQ alone, 1 h exposition): 30%; PQ-treated cell viability, % of control cells (MTT assay) ([8]; PQ alone 500 µM): 45.4%; PQ-treated cell viability, % of control cells (FDA assay) ([10]; PQ alone 500 µM): 62.2%; increase in the number of PI-straining cells ([5]; PQ alone, versus control): 35%; change of Hsp70 level in comparison with control cells ([6]; PQ alone 500 µM, 24 h): half-decrease; increase of ROS level compared to control cells ([7]; PQ alone 500 µM, within 1 h): 40%
